Results as given in the kinase profiling compilation of Christmann-Franck et al. (2016).
Values joined by “and” are separate entries in the source; they are usually repeats but may differ in a detail not shown here. Equal values may be shown once.

Assays:
Test in all cases: radiometric filter-binding kinase assay, Kinase HotSpot
Details in all cases: compound 0.5 µM; ATP 10 µM
[1] = molecular target: AKT1 (human) (UniProt P31749)
[2] = molecular target: AKT3 (human) (UniProt Q9Y243)
[3] = molecular target: BLK (human) (UniProt P51451)
[4] = molecular target: BMX (human) (UniProt P51813)
[5] = molecular target: CAMK2B (human) (UniProt Q13554)
[6] = molecular target: CDC42BPA (human) (UniProt Q5VT25)
[7] = molecular target: CDK3 CCNE1 (human) (UniProt Q00526+P24864)
[8] = molecular target: CLK2 (human) (UniProt P49760)
[9] = molecular target: CSK (human) (UniProt P41240)
[10] = molecular target: DDR2 (human) (UniProt Q16832)
[11] = molecular target: EPHA2 (human) (UniProt P29317)
[12] = molecular target: EPHA8 (human) (UniProt P29322)
[13] = molecular target: GRK4 (human) (UniProt P32298)
[14] = molecular target: GRK5 (human) (UniProt P34947)
[15] = molecular target: GRK7 (human) (UniProt Q8WTQ7)
[16] = molecular target: IKBKB (human) (UniProt O14920)
[17] = molecular target: LCK (human) (UniProt P06239)
[18] = molecular target: LYN (human) (UniProt P07948)
[19] = molecular target: MAP3K5 (human) (UniProt Q99683)
[20] = molecular target: MLTK (human) (UniProt Q9NYL2)
[21] = molecular target: NEK1 (human) (UniProt Q96PY6)
[22] = molecular target: NEK3 (human) (UniProt P51956)
[23] = molecular target: NLK (human) (UniProt Q9UBE8)
[24] = molecular target: NUAK1 (human) (UniProt O60285)
[25] = molecular target: OXSR1 (human) (UniProt O95747)
[26] = molecular target: PDGFRA (human) (UniProt P16234)
[27] = molecular target: PRKCD (human) (UniProt Q05655)
[28] = molecular target: PRKCG (human) (UniProt P05129)
[29] = molecular target: PRKCH (human) (UniProt P24723)
[30] = molecular target: PRKG2 (human) (UniProt Q13237)
[31] = molecular target: PRKX (human) (UniProt P51817)
[32] = molecular target: PTK2 (human) (UniProt Q05397)
[33] = molecular target: ROS1 (human) (UniProt P08922)
[34] = molecular target: RPS6KB1 (human) (UniProt P23443)
[35] = molecular target: SIK2 (human) (UniProt Q9H0K1)
[36] = molecular target: SRMS (human) (UniProt Q9H3Y6)
[37] = molecular target: SRPK2 (human) (UniProt P78362)
[38] = molecular target: TAOK2 (human) (UniProt Q9UL54)
[39] = molecular target: TBK1 (human) (UniProt Q9UHD2)
[40] = molecular target: ULK1 (human) (UniProt O75385)
[41] = molecular target: KDR (human) (UniProt P35968)
[42] = molecular target: KIT (human) (UniProt P10721)

Chain of PRKG2 (human) (Q13237 whole entry, looked up): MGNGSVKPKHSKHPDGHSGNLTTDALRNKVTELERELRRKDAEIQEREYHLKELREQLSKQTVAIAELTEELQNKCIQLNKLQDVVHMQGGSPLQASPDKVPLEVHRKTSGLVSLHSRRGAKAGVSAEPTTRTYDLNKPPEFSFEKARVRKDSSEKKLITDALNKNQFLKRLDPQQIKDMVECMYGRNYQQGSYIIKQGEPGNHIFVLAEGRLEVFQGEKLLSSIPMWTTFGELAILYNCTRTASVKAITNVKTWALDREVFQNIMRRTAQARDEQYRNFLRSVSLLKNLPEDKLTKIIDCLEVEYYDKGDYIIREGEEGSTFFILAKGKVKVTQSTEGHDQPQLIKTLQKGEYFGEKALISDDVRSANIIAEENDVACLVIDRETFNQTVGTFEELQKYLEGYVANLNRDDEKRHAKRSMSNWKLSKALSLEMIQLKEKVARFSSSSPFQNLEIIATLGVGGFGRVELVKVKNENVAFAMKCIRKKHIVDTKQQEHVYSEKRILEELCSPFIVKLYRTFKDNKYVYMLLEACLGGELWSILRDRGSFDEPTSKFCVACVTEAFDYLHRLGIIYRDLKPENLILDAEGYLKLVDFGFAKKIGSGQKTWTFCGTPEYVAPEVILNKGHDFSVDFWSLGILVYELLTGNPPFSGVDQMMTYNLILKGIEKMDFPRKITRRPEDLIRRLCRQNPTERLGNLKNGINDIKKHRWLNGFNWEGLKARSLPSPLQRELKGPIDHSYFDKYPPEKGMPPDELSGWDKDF
Chain of MAP3K5 (human) (Q99683 whole entry, looked up): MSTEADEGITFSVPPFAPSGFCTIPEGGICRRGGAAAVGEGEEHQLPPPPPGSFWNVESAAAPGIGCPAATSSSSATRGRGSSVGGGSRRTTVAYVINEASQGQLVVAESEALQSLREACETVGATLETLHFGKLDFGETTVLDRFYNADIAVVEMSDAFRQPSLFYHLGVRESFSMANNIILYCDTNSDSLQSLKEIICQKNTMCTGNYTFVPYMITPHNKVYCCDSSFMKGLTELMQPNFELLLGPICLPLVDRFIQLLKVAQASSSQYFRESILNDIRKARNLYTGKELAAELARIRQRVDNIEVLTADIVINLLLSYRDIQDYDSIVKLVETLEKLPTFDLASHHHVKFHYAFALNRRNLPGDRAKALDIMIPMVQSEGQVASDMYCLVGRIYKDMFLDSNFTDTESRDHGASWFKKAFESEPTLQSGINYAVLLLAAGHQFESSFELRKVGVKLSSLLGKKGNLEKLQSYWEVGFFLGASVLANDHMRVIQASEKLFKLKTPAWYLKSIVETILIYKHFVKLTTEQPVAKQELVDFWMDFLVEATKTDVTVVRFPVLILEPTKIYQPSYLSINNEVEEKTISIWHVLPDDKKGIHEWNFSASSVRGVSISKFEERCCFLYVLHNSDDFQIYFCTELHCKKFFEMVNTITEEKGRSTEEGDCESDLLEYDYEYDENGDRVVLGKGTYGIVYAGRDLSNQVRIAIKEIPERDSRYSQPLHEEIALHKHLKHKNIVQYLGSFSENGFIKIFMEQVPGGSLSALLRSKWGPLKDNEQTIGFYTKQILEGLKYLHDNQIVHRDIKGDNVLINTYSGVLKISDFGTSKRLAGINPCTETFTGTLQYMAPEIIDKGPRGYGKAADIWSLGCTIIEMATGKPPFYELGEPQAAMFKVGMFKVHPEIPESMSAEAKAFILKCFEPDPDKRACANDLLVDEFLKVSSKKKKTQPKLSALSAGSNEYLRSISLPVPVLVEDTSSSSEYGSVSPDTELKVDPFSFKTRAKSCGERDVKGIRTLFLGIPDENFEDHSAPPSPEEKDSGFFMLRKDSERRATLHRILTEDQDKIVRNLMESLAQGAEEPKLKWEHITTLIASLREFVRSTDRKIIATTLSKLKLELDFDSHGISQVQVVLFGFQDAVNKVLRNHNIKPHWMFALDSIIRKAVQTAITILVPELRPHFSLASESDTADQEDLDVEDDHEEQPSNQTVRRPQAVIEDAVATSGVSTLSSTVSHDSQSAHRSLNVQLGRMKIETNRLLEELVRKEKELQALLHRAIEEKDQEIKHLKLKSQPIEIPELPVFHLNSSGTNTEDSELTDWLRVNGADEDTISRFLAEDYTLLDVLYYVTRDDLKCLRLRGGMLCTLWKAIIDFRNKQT
Chain of OXSR1 (human) (O95747 whole entry, looked up): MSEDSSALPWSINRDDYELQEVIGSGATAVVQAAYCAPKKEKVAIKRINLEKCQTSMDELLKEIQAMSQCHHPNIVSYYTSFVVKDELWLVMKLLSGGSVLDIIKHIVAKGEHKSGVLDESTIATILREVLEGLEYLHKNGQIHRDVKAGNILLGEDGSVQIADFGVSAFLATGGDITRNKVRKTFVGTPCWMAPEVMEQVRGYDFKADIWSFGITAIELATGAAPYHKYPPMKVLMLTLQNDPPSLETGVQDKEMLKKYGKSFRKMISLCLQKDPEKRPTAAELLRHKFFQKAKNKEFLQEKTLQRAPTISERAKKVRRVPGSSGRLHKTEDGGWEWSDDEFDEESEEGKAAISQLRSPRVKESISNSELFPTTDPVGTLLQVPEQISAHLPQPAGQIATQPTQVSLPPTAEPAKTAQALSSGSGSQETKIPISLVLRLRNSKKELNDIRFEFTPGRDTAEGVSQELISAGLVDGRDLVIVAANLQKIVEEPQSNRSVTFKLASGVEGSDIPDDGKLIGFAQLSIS
Chain of ROS1 (human) (P08922 whole entry, looked up): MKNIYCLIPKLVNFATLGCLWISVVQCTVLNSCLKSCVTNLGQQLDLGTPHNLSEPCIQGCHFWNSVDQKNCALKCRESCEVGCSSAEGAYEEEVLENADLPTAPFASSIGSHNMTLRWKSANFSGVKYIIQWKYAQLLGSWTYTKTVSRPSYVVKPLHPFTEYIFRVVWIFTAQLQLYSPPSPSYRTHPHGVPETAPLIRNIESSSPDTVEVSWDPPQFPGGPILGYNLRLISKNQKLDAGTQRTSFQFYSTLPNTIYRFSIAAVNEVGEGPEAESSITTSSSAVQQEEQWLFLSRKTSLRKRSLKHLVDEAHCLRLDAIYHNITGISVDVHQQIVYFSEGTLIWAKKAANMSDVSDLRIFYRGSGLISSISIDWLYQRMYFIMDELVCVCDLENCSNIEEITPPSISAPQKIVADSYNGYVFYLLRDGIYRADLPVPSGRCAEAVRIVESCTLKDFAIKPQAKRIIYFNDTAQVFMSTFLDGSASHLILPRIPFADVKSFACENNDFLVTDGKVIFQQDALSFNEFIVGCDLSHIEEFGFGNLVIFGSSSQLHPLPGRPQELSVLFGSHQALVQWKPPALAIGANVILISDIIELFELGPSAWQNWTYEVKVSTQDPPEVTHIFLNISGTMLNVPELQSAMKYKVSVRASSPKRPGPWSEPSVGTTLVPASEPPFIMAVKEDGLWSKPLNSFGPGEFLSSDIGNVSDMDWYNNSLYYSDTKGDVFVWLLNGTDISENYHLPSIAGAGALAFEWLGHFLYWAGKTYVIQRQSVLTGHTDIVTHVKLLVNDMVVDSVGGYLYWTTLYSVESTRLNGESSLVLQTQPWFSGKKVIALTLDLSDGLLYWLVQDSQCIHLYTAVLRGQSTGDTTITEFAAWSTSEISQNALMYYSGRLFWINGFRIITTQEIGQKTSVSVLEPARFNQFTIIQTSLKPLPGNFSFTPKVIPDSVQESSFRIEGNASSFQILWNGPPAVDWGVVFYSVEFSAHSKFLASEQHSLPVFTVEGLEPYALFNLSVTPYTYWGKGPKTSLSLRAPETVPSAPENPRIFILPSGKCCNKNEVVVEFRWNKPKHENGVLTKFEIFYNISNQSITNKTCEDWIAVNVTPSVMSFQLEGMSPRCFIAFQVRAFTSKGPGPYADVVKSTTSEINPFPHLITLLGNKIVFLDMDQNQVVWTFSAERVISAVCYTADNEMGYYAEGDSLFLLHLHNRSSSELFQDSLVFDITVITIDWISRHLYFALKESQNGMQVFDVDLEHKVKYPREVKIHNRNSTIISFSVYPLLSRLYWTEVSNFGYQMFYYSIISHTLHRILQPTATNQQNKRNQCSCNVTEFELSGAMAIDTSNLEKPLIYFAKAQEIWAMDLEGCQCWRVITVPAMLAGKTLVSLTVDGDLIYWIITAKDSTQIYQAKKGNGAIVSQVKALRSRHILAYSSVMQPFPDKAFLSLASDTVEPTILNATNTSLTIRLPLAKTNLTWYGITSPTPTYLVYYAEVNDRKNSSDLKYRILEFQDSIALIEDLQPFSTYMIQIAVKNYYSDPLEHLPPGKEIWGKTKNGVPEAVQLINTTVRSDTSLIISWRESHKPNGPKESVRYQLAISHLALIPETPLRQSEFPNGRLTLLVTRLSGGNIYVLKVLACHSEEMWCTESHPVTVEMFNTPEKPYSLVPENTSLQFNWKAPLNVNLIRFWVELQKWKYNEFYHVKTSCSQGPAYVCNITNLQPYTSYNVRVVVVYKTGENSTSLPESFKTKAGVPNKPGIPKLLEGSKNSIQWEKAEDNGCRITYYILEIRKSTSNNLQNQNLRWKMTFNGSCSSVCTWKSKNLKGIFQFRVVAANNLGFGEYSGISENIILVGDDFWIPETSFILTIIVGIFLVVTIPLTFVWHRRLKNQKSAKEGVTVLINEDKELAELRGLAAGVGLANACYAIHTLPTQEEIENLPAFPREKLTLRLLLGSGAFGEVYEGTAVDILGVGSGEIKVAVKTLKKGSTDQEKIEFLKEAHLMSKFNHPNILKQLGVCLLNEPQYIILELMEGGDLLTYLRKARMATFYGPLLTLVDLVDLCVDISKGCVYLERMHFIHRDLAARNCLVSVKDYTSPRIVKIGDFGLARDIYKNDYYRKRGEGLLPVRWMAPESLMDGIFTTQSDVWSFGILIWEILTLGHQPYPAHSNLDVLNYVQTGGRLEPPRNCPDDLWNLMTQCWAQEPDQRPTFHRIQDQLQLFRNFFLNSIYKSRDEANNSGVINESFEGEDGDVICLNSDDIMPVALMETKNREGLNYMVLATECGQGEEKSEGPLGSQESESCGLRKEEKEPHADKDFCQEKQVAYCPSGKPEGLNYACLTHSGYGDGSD

Clc1ccc(Nc2nnc(Cc3ccncc3)c3ccccc23)cc1
residual activity [1]: 103% | residual activity [2]: 89.9% | residual activity [3]: 105% | residual activity [4]: 106% | residual activity [5]: 109% | residual activity [6]: 78.3% | residual activity [7]: 92.7% | residual activity [8]: 87.6% | residual activity [9]: 87.6% | residual activity [10]: 97.1% | residual activity [11]: 92.5% | residual activity [12]: 100% | residual activity [13]: 91.3% | residual activity [14]: 110% | residual activity [15]: 92.2% | residual activity [16]: 85.6% | residual activity [17]: 87% | residual activity [18]: 110% and 91.8% | residual activity [19]: 101% | residual activity [20]: 90.3% | residual activity [21]: 75.3% | residual activity [22]: 94.1% | residual activity [23]: 99.3% | residual activity [24]: 112% | residual activity [25]: 101% | residual activity [26]: 33.3% | residual activity [27]: 97.4% | residual activity [28]: 93.3% | residual activity [29]: 105% | residual activity [30]: 101% | residual activity [31]: 152% | residual activity [32]: 101% | residual activity [33]: 94.7% | residual activity [34]: 102% | residual activity [35]: 97.9% | residual activity [36]: 91.8% | residual activity [37]: 96.5% | residual activity [38]: 85.4% | residual activity [39]: 104% | residual activity [40]: 107%

C#Cc1cccc(Nc2ncnc3cc(OCCOC)c(OCCOC)cc23)c1
residual activity [1]: 93.7% | residual activity [2]: 74.6% | residual activity [3]: 79.4% | residual activity [4]: 100% | residual activity [5]: 93.1% | residual activity [6]: 88.5% | residual activity [7]: 95.6% | residual activity [8]: 93.4% | residual activity [9]: 100% | residual activity [11]: 91.3% | residual activity [12]: 89.7% | residual activity [13]: 89.6% | residual activity [14]: 100% | residual activity [15]: 98.3% | residual activity [16]: 83.5% | residual activity [18]: 72.5% and 75.4% | residual activity [19]: 102% | residual activity [20]: 92.2% | residual activity [21]: 73.8% | residual activity [22]: 95.6% | residual activity [23]: 103% | residual activity [24]: 98% | residual activity [25]: 102% | residual activity [26]: 84.4% | residual activity [27]: 104% | residual activity [28]: 84.1% | residual activity [29]: 116% | residual activity [30]: 107% | residual activity [31]: 111% | residual activity [32]: 108% | residual activity [33]: 99.6% | residual activity [34]: 95.1% | residual activity [36]: 93.2% | residual activity [37]: 101% | residual activity [38]: 106% | residual activity [40]: 113%

O=C1Cc2c([nH]c3ccc([N+](=O)[O-])cc23)-c2ccccc2N1
residual activity [1]: 107% | residual activity [2]: 94.1% | residual activity [3]: 94.2% | residual activity [4]: 110% | residual activity [5]: 98.1% | residual activity [6]: 96.2% | residual activity [7]: 56.8% | residual activity [8]: 97.7% | residual activity [9]: 96.6% | residual activity [10]: 103% | residual activity [11]: 92.7% | residual activity [12]: 104% | residual activity [13]: 99.3% | residual activity [14]: 107% | residual activity [15]: 99% | residual activity [16]: 102% | residual activity [41]: 87.8% | residual activity [42]: 83.7% | residual activity [17]: 81.2% | residual activity [19]: 101% | residual activity [21]: 105% | residual activity [22]: 108% | residual activity [23]: 95.5% | residual activity [24]: 12% | residual activity [25]: 97% | residual activity [26]: 91.7% | residual activity [27]: 79.8% | residual activity [28]: 92.5% | residual activity [29]: 96.9% | residual activity [30]: 97.6% | residual activity [31]: 74.5% | residual activity [32]: 88.1% | residual activity [33]: 80.2% | residual activity [34]: 103% | residual activity [35]: 56.5% | residual activity [36]: 92.9% | residual activity [37]: 109% | residual activity [38]: 88.9% | residual activity [39]: 82.4% | residual activity [40]: 85.1%

CC(C)(C)c1nc2c3ccc(F)cc3c3c(=O)[nH]ccc3c2[nH]1
residual activity [1]: 86.8% | residual activity [2]: 76.4% | residual activity [3]: 93.5% | residual activity [4]: 71.9% | residual activity [5]: 73.4% | residual activity [6]: 95.7% | residual activity [7]: 92.1% | residual activity [8]: 93.9% | residual activity [9]: 114% | residual activity [11]: 98.5% | residual activity [12]: 105% | residual activity [13]: 74.2% | residual activity [14]: 72.9% | residual activity [15]: 60.5% | residual activity [16]: 52.1% | residual activity [41]: 103% | residual activity [42]: 96.1% | residual activity [18]: 101% and 95.9% | residual activity [19]: 84.4% | residual activity [20]: 78.1% | residual activity [21]: 49% | residual activity [22]: 74.4% | residual activity [23]: 26.1% | residual activity [24]: 3.04% | residual activity [25]: 100% | residual activity [26]: 92.1% | residual activity [27]: 43.6% | residual activity [28]: 79.9% | residual activity [29]: 81.5% | residual activity [30]: 14.3% | residual activity [31]: 79.2% | residual activity [32]: 35.3% | residual activity [33]: 31.2% | residual activity [34]: 74.1% | residual activity [35]: 60.2% | residual activity [36]: 98.7% | residual activity [37]: 70.5% | residual activity [39]: 24% | residual activity [40]: 12.8%

COc1cc2ncnc(Nc3ccc(F)c(Cl)c3)c2cc1OCCCN1CCOCC1
residual activity [1]: 94.1% | residual activity [2]: 84.6% | residual activity [3]: 87.7% | residual activity [4]: 102% | residual activity [5]: 95.4% | residual activity [6]: 87.8% | residual activity [7]: 95% | residual activity [8]: 94.8% | residual activity [9]: 95.4% | residual activity [10]: 117% | residual activity [11]: 85.7% | residual activity [12]: 84.5% | residual activity [13]: 91% | residual activity [14]: 94.9% | residual activity [15]: 96.2% | residual activity [16]: 86.5% | residual activity [18]: 57.1% and 67.8% | residual activity [19]: 103% | residual activity [20]: 96.2% | residual activity [21]: 90.4% | residual activity [22]: 94.4% | residual activity [23]: 91.1% | residual activity [24]: 99.1% | residual activity [25]: 101% | residual activity [26]: 97% | residual activity [27]: 106% | residual activity [28]: 84.2% | residual activity [32]: 103% | residual activity [33]: 92.3% | residual activity [34]: 93.9% | residual activity [35]: 49.3% | residual activity [36]: 96.4% | residual activity [37]: 99.5% | residual activity [38]: 106% | residual activity [39]: 83.1% | residual activity [40]: 93%
